Patent publication US20210355138A1, “AMINOTHIAZINIES AND THEIR USE AS BACE1 INHIBITORS” (Eli Lilly and Company, priority 2016, published 2021)
Like-named read-outs stand apart in the source and are kept apart here.

What was measured:
Human BACE1(1-460):Fc = target: T1, Human BACE1(1-460):Fc (Homo sapiens, UniProt P56817); assay: BACE1 FRET Assay; format: biochemical; conditions: purified recombinant huBACE1:Fc, FRET substrate based on APP sequence, pH 4.6; mean ± standard deviation of the mean (0.035), n=5
T1 construct: made in house; host or cells: HEK293 (transient transfection, conditioned medium)
Experimental: (§1) To assess selectivity of BACE1 over BACE2, the test compound is evaluated in FRET assays using specific substrates for BACE1 and BACE2 as described below. For in vitro enzymatic and cellular assays, the test compound is prepared in DMSO to make up a 10 mM stock solution. The stock solution is serially diluted in DMSO to obtain a ten-point dilution curve with final compound concentrations ranging from 10 μM to 0.05 nM in a 96-well round-bottom plate before conducting the in vitro enzymatic and whole cell assays.
Human BACE1 (accession number: AF190725) and human BACE2 (accession number: AF 204944) are cloned from total brain cDNA by RT-PCR. The nucleotide sequences corresponding to amino acid sequences #1 to 460 are inserted into the cDNA encoding human IgG1 (Fc) polypeptide (Vassar et al., Science, 286, 735-742 (1999)). […]
Conditioned media of HEK293 cells transiently transfected with huBACE1:Fc or huBACE2:Fc cDNA are collected. […] The purity of the final product is assessed by electrophoresis in 4-20% Tris-Glycine SDS-PAGE. […]
Serial dilutions of the test compound are prepared as described above. […] The RFU of the mixture at time 0 is recorded at excitation wavelength 355 nm and emission wavelength 460 nm, after brief mixing on a plate shaker. […] The RFU at the end of incubation is recorded with the same excitation and emission settings used at time 0. […]

BACE1 = target: T2, BACE1 (Homo sapiens, UniProt P56817); assay: SH-SY5YAPP695Wt Whole Cell Assay (Abeta ELISA); format: cell-based; conditions: SH-SY5Y cells stably expressing human APP695Wt, 24 hours incubation, n=6
T2 construct: endogenous in cells; host or cells: SH-SY5Y (ATCC CRL2266) stably expressing human APP695Wt
Experimental: as §1
The routine whole cell assay for the measurement of inhibition of BACE1 activity utilizes the human neuroblastoma cell line SH-SY5Y (ATCC Accession No. CRL2266) stably expressing a human APP695Wt cDNA. Cells are routinely used up to passage number 6 and then discarded.
SH-SY5YAPP695Wt cells are plated in 96 well tissue culture plates at 5.0×10^4 cells/well in 200 μL culture media (50% MEM/EBSS and Ham's F12, 1× each sodium pyruvate, non-essential amino acids and NaHCO3 containing 10% FBS). The following day, media is removed from the cells, fresh media added then incubated at 37° C. for 24 hours in the presence/absence of test compound at the desired concentration range.
At the end of the incubation, conditioned media are analyzed for evidence of beta-secretase activity by analysis of Abeta peptides 1-40 and 1-42 by specific sandwich ELISAs. […]

T2 sequence (P56817 46-501): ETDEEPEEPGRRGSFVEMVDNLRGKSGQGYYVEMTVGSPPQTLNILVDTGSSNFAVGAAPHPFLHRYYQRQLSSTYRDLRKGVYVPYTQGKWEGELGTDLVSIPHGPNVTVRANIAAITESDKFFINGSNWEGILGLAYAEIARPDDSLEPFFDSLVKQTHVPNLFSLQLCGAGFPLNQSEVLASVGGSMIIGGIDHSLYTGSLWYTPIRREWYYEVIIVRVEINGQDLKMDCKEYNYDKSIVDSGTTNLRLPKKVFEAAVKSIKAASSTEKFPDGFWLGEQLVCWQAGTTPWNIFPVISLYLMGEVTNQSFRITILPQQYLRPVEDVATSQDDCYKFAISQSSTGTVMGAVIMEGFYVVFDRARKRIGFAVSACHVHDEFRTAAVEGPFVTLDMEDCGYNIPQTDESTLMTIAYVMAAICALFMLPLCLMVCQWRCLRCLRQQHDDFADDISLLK
T1 sequence (P56817 22-460): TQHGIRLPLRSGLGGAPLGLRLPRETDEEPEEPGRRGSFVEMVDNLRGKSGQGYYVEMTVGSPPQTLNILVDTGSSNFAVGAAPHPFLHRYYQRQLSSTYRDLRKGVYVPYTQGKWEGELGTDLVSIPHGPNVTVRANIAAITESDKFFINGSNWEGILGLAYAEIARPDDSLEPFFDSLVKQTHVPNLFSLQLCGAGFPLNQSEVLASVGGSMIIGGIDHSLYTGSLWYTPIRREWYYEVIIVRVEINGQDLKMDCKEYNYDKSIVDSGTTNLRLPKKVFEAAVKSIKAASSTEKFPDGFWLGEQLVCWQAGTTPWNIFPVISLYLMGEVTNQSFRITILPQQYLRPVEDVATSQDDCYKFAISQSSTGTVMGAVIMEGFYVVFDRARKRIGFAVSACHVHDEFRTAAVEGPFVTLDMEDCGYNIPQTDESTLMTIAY

In the case of `CC(F)(F)[C@H]1C[C@H]2CSC(N)=N[C@@]2(c2cc(NC(=O)c3ccc(C#N)cn3)ccc2F)CO1` [Example 1, N-[3-[(4aR,6R,8aS)-2-Amino-6-(1,1-difluoroethyl)-4a,5,6,8-tetrahydro-4H-pyrano[3,4-d][1,3]thiazin-8a-yl]-4-fluoro-phenyl]-5-cyano-pyridine-2-carboxamide], the IC50 (Human BACE1(1-460):Fc) is reported as 0.263 nM, the IC50 (BACE1; Abeta 1-40 in conditioned media, mean ± standard deviation of the mean (0.0104), read-out: IC50 for SH-SY5YAPP695Wt A-beta (1-40) ELISA) is reported as 0.026 nM and the IC50 (BACE1; Abeta 1-42 in conditioned media, mean ± standard deviation of the mean (0.0187), read-out: IC50 for SH-SY5YAPP695Wt A-beta (1-42) ELISA) is reported as 0.0313 nM.
